Results reported in patent publication US11691989B2, “Macrocyclic indoles as Mcl-1 inhibitors” (ASCENTAGE PHARMA (SUZHOU) CO., LTD., priority 2018, dated 2023).
pIC50: −log10 of the molar value.

Legend:
OPM-2 cells = test: Cell viability assay (OPM-2 cells), CCK-8; type: cell-based; conditions: Homo sapiens, OPM-2, 24 h, 5% FBS
Experimental: Cell Viability Assay (OPM-2 cells)
OPM-2 cells were obtained from Deutsche Sammlung von Mikroorganismen and Zellkulturen GmbH (DSMZ). Cells were maintained in the recommended culture medium with 10% FBS at 37° C. and an atmosphere of 5% CO2.
The effect of representative Compounds of the Disclosure on cell viability was determined using Cell Counting Kit-8 (CCK-8) assay (Shanghai Life iLab Bio Technology) according to the manufacturer's instructions. Each tested compound was serially diluted in culture medium, 100 μL of the compound dilution was added into 96-well plates. 100 μL of an OPM-2 cell suspension (20000 cells/well) in culture medium were seeded into the corresponding well of the plate and the cells were incubated at 37° C. in an atmosphere of 5% CO2 for 24 hours. In the next day, 20 μL of CCK-8 solution was added to each well of the plate and incubated for 4 hours.
The plates were read at 450 nm on the microplate spectrophotometer (SpectraMax plus 384, Molecular devices). The readings were normalized to the vehicle cells, and the IC50 was calculated by nonlinear regression analysis using GraphPad Prism 6 software.

NCI-H929 cells = test: Cell viability assay (NCI-H929 cells), CCK-8; type: cell-based; conditions: Homo sapiens, NCI-H929, 24 h, 5% FBS
Experimental: Cell Viability Assay (NCI-H929 cells)
NCI-H929 cells were obtained from American Type Culture Collection (ATCC). Cells were maintained in the recommended culture medium (RPMI 1640) with 10% FBS and 0.05 mM BME at 37° C. and an atmosphere of 5% CO2.
The effect of Compounds on cell viability was determined using Cell Counting Kit-8 (CCK-8) assay according to the manufacturer's instructions. 95 μL of NCI-H929 cell suspension (20000 cells/well) in culture medium were seeded into 96-well plates and cultured 4 hrs. Each tested compound was serially diluted in DMSO, then 5 μL of the compound or DMSO was diluted in 95 μL medium once more. At last, 5 μL of the compound dilution was added to the corresponding well of the cell plate. After the addition of the tested compound, the cells were incubated at 37° C. in an atmosphere of 5% CO2 for 24 hrs. At the end, 10 μL of CCK-8 solution was added to each well of the plate and incubated for 1-4 hours. The plates were read at 450 nm on the microplate reader (BioTek Synergy 1MF). The readings were normalized to the vehicle cells, and the IC50 was calculated by nonlinear regression analysis using GraphPad Prism 6 software.

[1] = target: Mcl-1 protein (residues 171-323) (Homo sapiens (Human), UniProt Q07820); test: Inhibition of Mcl-1 by fluorescence polarization (FP) competitive binding assay with FAM-Bid tracer; conditions: 2 nM FAM-Bid, 20 nM Mcl-1, 30 min, read-out: Mc1-1 (FP)
Sequence of Mcl-1 protein (residues 171-323) (Q07820 171-323): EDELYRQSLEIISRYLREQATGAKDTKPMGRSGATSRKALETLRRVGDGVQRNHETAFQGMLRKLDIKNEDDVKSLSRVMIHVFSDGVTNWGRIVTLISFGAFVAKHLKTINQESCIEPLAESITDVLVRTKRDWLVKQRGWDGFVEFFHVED
Experimental: Inhibition of Mcl-1 by fluorescence polarization (FP) assay.
The method used a fluorescein labelled peptide (FAM-Bid) which binds to the Mcl-1 protein leading to an increased anisotropy measured in milli-polarization (mP) values using a plate reader.
A 10-points serial dilution of each compound was prepared in DMSO and 5 μL solution was transferred into flat bottomed, 96-well back plate (final DMSO concentration 5%). 120 μL of Buffer (PBS, 0.01% BGG (Sigma Cat. #SRE0011), 0.01% Triton X-100), containing the Fluorescein labelled peptide (Final concentration 2 nM) and Mcl-1 protein (final concentration 20 nM) was then added. […] 10-points dose response curves were plotted with GraphPad software using Sigmoidal Dose-Response Model and the IC50 values were determined by nonlinear regression fitting of the competition curves.

Row | pIC50 (NCI-H929 cells) | pIC50 [1] | Compound | pIC50 (OPM-2 cells)
1 | 6.77 | 8.30 | Cc1c(C(=O)O)n2c3ccc(Cl)c(c13)-c1c(nn(C)c1C)CN(S(=O)(=O)C(F)(F)F)Cc1cc(n(C)n1)CSc1cc(c3ccccc3c1)OCCC2 [Cpd. No. 47, (Z)-1^5-chloro-1^3,2^1,2^5,6^1-tetramethyl-4-((trifluoromethyl)sulfonyl)-1^1H,2^1H,6^1H-10-oxa-8-thia-4-aza-1(4,1)-indola-2(4,3),6(3,5)-dipyrazola-9(3,1)-naphthalenacyclotridecaphane-1^2-carboxylic acid] | 6.64
2 | 5.37 | 7.68 | Cc1c2c(nn1C)CSCc1cc(n(C)n1)CSc1cc(c3ccc(F)cc3c1)OCCCn1c(C(=O)O)c(C#N)c3c-2c(Cl)ccc31 [Cpd. No. 25, (Z)-1^5-chloro-1^3-cyano-9^6-fluoro-2^1,2^5,6^1-trimethyl-1^1H,2^1H,6^1H-10-oxa-4,8-dithia-1(4,1)-indola-2(4,3),6(3,5)-dipyrazola-9(3,1)-naphthalenacyclotridecaphane-1^2-carboxylic acid] | 5.22
3 | 6.57 | 8.15 | CNS(=O)(=O)N1Cc2cc(n(C)n2)CSc2cc(c3ccc(F)cc3c2)OCCCn2c(C(=O)O)c(C)c3c(c(Cl)ccc32)-c2c(nn(C)c2C)C1 [Cpd. No. 38, (Z)-1^5-chloro-9^6-fluoro-1^3,2^1,2^5,6^1-tetramethyl-4-(N-methylsulfamoyl)-1^1H,2^1H,6^1H-10-oxa-8-thia-4-aza-1 (4,1)-indola-2(4,3),6(3,5)-dipyrazola-9(3,1)-naphthalenacyclotridecaphane-1^2-carboxylic acid] | 6.27
4 | 6.61 | 7.92 | Cc1nn(C)c2c1-c1c(Cl)ccc3c1c(C)c(C(=O)O)n3CCCOc1cc(cc3ccccc13)SCc1cc(nn1C)CN(S(C)(=O)=O)C2 [Cpd. No. 48, (Z)-1^5-chloro-1^3,2^1,2^3,6^1-tetramethyl-4-(methylsulfonyl)-1^1H,2^1H,6^1H-10-oxa-8-thia-4-aza-1(4,1)-indola-2(4,5),6(3,5)-dipyrazola-9(3,1)-naphthalenacyclotridecaphane-1^2-carboxylic acid] | 6.23
5 | 6.16 | 7.57 | Cc1c(C(=O)O)n2c3ccc(Cl)c(c13)-c1c(nn(C)c1C)CN(S(=O)(=O)c1cnn(C)c1)Cc1cc(n(C)n1)CSc1cc(c3ccc(F)cc3c1)OCCC2 [Cpd. No. 36, (Z)-1^5-chloro-9^6-fluoro-1^3,2^1,2^5,6^1-tetramethyl-4#1-methyl-1H-pyrazol-4-yl)sulfonyl)-1^1H,2^1H,6^1H-10-oxa-8-thia-4-aza-1(4,1)-indola-2(4,3),6(3,5)-dipyrazola-9(3,1)-naphthalenacyclotridecaphane-1^2-carboxylic acid] | 5.70
6 | 5.82 | 7.54 | Cc1c(C(=O)O)n2c3ccc(Cl)c(c13)-c1c(nn(C)c1C)CN(S(=O)(=O)c1ccn(C)n1)Cc1cc(n(C)n1)CSc1cc(c3ccc(F)cc3c1)OCCC2 [Cpd. No. 37, (Z)-1^5-chloro-9^6-fluoro-1^3,2^1,2^5,6^1-tetramethyl-4#1-methyl-1H-pyrazol-3-yl))sulfonyl)-1^1H,2^1H,6^1H-10-oxa-8-thia-4-aza-1(4,1)-indola-2(4,3),6(3,5)-dipyrazola-9(3,1)-naphthalenacyclotridecaphane-1^2-carboxylic acid] | 5.50
7 | 5.73 | 8.40 | CNC(=O)Cn1nc2c(c1C)-c1c(Cl)ccc3c1c(C)c(C(=O)O)n3CCCOc1cc(cc3ccccc13)SCc1cc(nn1C)CSC2 [Cpd. No. 10, (Z)-1^5-chloro-1^3,2^5,6^1-trimethyl-2^1-(2-(methylamino)-2-oxoethyl)-1^1H,2^1H,6^1H-10-oxa-4,8-dithia-1(4,1)-indola-2(4,3),6(3,5)-dipyrazola-9(3,1)-naphthalenacyclotridecaphane-1^2-carboxylic acid] | 5.39
8 | 6.70 | 7.77 | Cc1c(C(=O)O)n2c3ccc(Cl)c(c13)-c1c(nn(C)c1C)CN(S(=O)(=O)c1cccnc1)Cc1cc(n(C)n1)CSc1cc(c3ccc(F)cc3c1)OCCC2 [Cpd. No. 41, (Z)-1^5-chloro-9^6-fluoro-1^3,2^1,2^5,6^1-tetramethyl-4-(pyridin-3-ylsulfonyl)-1^1H,2^1H,6^1H-10-oxa-8-thia-4-aza-1 (4,1)-indola-2(4,3),6(3,5)-dipyrazola-9(3,1)-naphthalenacyclotridecaphane-1^2-carboxylic acid] | 6.56
9 | 6.84 | 7.62 | Cc1c(C(=O)O)n2c3ccc(Cl)c(c13)-c1c(nn(C)c1C)CN(c1ccccc1)Cc1cc(n(C)n1)CSc1cc(c3ccc(F)cc3c1)OCCC2 [Cpd. No. 55, (Z)-1^5-chloro-9^6-fluoro-1^3,2^1,2^5,6^1-tetramethyl-4-phenyl-1^1H,2^1H,6^1E-10-oxa-8-thia-4-aza-1(4,1)-indola-2(4,3),6(3,5)-dipyrazola-9(3,1)-naphthalenacyclotridecaphane-1^2-carboxylic acid] | 6.13
10 | 6.55 | 7.82 | COCCn1nc(C)c2c1CSCc1cc(n(C)n1)CSc1cc(c3ccccc3c1)OCCCn1c(C(=O)O)c(C)c3c-2c(Cl)ccc31 [Cpd. No. 27, (Z)-1^5-chloro-2^1-(2-methoxyethyl)-1^3,2^3,6^1-trimethyl-1^1H,2^1H,6^1H-10-oxa-4,8-dithia-1(4,1)-indola-2(4,5),6(3,5)-dipyrazola-9(3,1)-naphthalenacyclotridecaphane-1^2-carboxylic acid] | 6.59
11 | 6.77 | 8.00 | Cc1c(C(=O)O)n2c3ccc(F)c(c13)-c1c(nn(C)c1C)CSCc1cc(n(C)n1)CSc1cc(c3ccc(F)cc3c1)OCCC2 [Cpd. No. 21, (Z)-1^5,9^6-difluoro-1^3,2^1,2^5,6^1-tetramethyl-1^1H,2^1H,6^1H-10-oxa-4,8-dithia-1(4,1)-indola-2(4,3), 6(3,5)-dipyrazola-9(3,1)-naphthalenacyclotridecaphane-1^2-carboxylic acid] | 6.65
12 | 6.74 |  | Cc1c2c(nn1C)CSCc1cc(n(C)n1)CSc1cc(c3ccc(F)cc3c1)OCCCn1c(C(=O)O)cc3c-2c(Cl)ccc31 [Cpd. No. 13, (Z)-1^5-chloro-9^6-fluoro-2^1,2^5,6^1-trimethyl-1^1H,2^1H,6^1E-10-oxa-4,8-dithia-1(4,1)-indola-2(4,3),6(3,5)-dipyrazola-9(3,1)-naphthalenacyclotridecaphane-1^2-carboxylic acid] | 6.19
13 | 5.73 | 7.77 | Cc1c(C(=O)O)n2c3ccc(Cl)c(c13)-c1c(nn3c1COCC3)CN(S(C)(=O)=O)Cc1cc(n(C)n1)CSc1cc(c3ccc(F)cc3c1)OCCC2 [Cpd. No. 30, (Z)-1^5-chloro-9^6-fluoro-4-(isopropylsulfonyl)-1^3, 6^1-di methyl-2^6,2^7-dihydro-1^1H,2^4H,6^1H-10-oxa-8-thia-4-aza-2(3,2)-pyrazolo[5,1-c][1,4]oxazina-1(4,1)-indola-6(3,5)-pyrazola-9(3,1)-naphthalenacyclotridecaphane-1^2-carboxylic acid] | 5.28
14 | 6.21 | 7.66 | Cc1c(C(=O)O)n2c3ccc(Cl)c(c13)-c1c(nn(C)c1C)CN(C(=O)c1ncco1)Cc1cc(n(C)n1)CSc1cc(c3ccc(F)cc3c1)OCCC2 [Cpd. No. 43, (Z)-1^5-chloro-9^6-fluoro-1^3,2^1,2^5,6^1-tetramethyl-4-(oxazole-2-carbonyl)-1^1H,2^1H,6^1H-10-oxa-8-thia-4-aza-1(4,1)-indola-2(4,3),6(3,5)-dipyrazola-9(3,1)-naphthalenacyclotridecaphane-1^2-carboxylic acid] | 5.90
